# In BigSolDB 2.1:
structure (smiles),measurement,setting,value
O=[N+]([O-])c1ccc(Oc2ccc([N+](=O)[O-])cc2)cc1,solubility (mole fraction),"in 1,4-dioxane, 283.15 K",0.026
same,solubility (mole fraction),"in 1,4-dioxane, 288.15 K",0.0325
same,solubility (mole fraction),"in 1,4-dioxane, 293.15 K",0.0409
same,solubility (mole fraction),"in 1,4-dioxane, 298.15 K",0.0489
same,solubility (mole fraction),"in 1,4-dioxane, 303.15 K",0.0575
same,solubility (mole fraction),"in 1,4-dioxane, 308.15 K",0.0674
same,solubility (mole fraction),"in 1,4-dioxane, 313.15 K",0.08
same,solubility (mole fraction),"in 1,4-dioxane, 318.15 K",0.0922
same,solubility (mole fraction),"in 1,4-dioxane, 323.15 K",0.11
same,solubility (mole fraction),"in 1-methoxy-2-propanol, 283.15 K",0.00539
same,solubility (mole fraction),"in 1-methoxy-2-propanol, 288.15 K",0.00657
same,solubility (mole fraction),"in 1-methoxy-2-propanol, 293.15 K",0.0071
same,solubility (mole fraction),"in 1-methoxy-2-propanol, 298.15 K",0.00864
same,solubility (mole fraction),"in 1-methoxy-2-propanol, 303.15 K",0.00979
same,solubility (mole fraction),"in 1-methoxy-2-propanol, 308.15 K",0.0114
same,solubility (mole fraction),"in 1-methoxy-2-propanol, 313.15 K",0.0137
same,solubility (mole fraction),"in 1-methoxy-2-propanol, 318.15 K",0.0162
same,solubility (mole fraction),"in 1-methoxy-2-propanol, 323.15 K",0.0198
same,solubility (mole fraction),"in 2-methoxyethanol, 283.15 K",0.00657
same,solubility (mole fraction),"in 2-methoxyethanol, 288.15 K",0.00753
same,solubility (mole fraction),"in 2-methoxyethanol, 293.15 K",0.00823
same,solubility (mole fraction),"in 2-methoxyethanol, 298.15 K",0.0103
same,solubility (mole fraction),"in 2-methoxyethanol, 303.15 K",0.0116
same,solubility (mole fraction),"in 2-methoxyethanol, 308.15 K",0.0131
same,solubility (mole fraction),"in 2-methoxyethanol, 313.15 K",0.0158
same,solubility (mole fraction),"in 2-methoxyethanol, 318.15 K",0.0182
same,solubility (mole fraction),"in 2-methoxyethanol, 323.15 K",0.022
same,solubility (mole fraction),"in DMAc, 283.15 K",0.0802
same,solubility (mole fraction),"in DMAc, 288.15 K",0.0866
same,solubility (mole fraction),"in DMAc, 293.15 K",0.0913
same,solubility (mole fraction),"in DMAc, 298.15 K",0.103
same,solubility (mole fraction),"in DMAc, 303.15 K",0.115
same,solubility (mole fraction),"in DMAc, 308.15 K",0.126
same,solubility (mole fraction),"in DMAc, 313.15 K",0.144
same,solubility (mole fraction),"in DMAc, 318.15 K",0.164
same,solubility (mole fraction),"in DMAc, 323.15 K",0.184
same,solubility (mole fraction),"in DMF, 283.15 K",0.0524
same,solubility (mole fraction),"in DMF, 288.15 K",0.0612
same,solubility (mole fraction),"in DMF, 293.15 K",0.0663
same,solubility (mole fraction),"in DMF, 298.15 K",0.077
same,solubility (mole fraction),"in DMF, 303.15 K",0.0883
same,solubility (mole fraction),"in DMF, 308.15 K",0.0933
same,solubility (mole fraction),"in DMF, 313.15 K",0.111
same,solubility (mole fraction),"in DMF, 318.15 K",0.126
same,solubility (mole fraction),"in DMF, 323.15 K",0.152
same,solubility (mole fraction),"in acetic acid, 283.15 K",0.00292
same,solubility (mole fraction),"in acetic acid, 288.15 K",0.00347
same,solubility (mole fraction),"in acetic acid, 293.15 K",0.00366
same,solubility (mole fraction),"in acetic acid, 298.15 K",0.00469
same,solubility (mole fraction),"in acetic acid, 303.15 K",0.00525
same,solubility (mole fraction),"in acetic acid, 308.15 K",0.00612
same,solubility (mole fraction),"in acetic acid, 313.15 K",0.0072
same,solubility (mole fraction),"in acetic acid, 318.15 K",0.00835
same,solubility (mole fraction),"in acetic acid, 323.15 K",0.0103
same,solubility (mole fraction),"in acetone, 283.15 K",0.0155
same,solubility (mole fraction),"in acetone, 288.15 K",0.0173
same,solubility (mole fraction),"in acetone, 293.15 K",0.0197
same,solubility (mole fraction),"in acetone, 298.15 K",0.0246
same,solubility (mole fraction),"in acetone, 303.15 K",0.0281
same,solubility (mole fraction),"in acetone, 308.15 K",0.0333
same,solubility (mole fraction),"in acetone, 313.15 K",0.0401
same,solubility (mole fraction),"in acetone, 318.15 K",0.0484
same,solubility (mole fraction),"in acetone, 323.15 K",0.0571
same,solubility (mole fraction),"in acetonitrile, 283.15 K",0.00446
same,solubility (mole fraction),"in acetonitrile, 288.15 K",0.00587
same,solubility (mole fraction),"in acetonitrile, 293.15 K",0.00682
same,solubility (mole fraction),"in acetonitrile, 298.15 K",0.00926
same,solubility (mole fraction),"in acetonitrile, 303.15 K",0.0104
same,solubility (mole fraction),"in acetonitrile, 308.15 K",0.0129
same,solubility (mole fraction),"in acetonitrile, 313.15 K",0.0158
same,solubility (mole fraction),"in acetonitrile, 318.15 K",0.0195
same,solubility (mole fraction),"in acetonitrile, 323.15 K",0.0241
same,solubility (mole fraction),"in anisole, 283.15 K",0.0243
same,solubility (mole fraction),"in anisole, 288.15 K",0.0293
same,solubility (mole fraction),"in anisole, 293.15 K",0.0339
same,solubility (mole fraction),"in anisole, 298.15 K",0.0395
same,solubility (mole fraction),"in anisole, 303.15 K",0.0444
same,solubility (mole fraction),"in anisole, 308.15 K",0.0547
same,solubility (mole fraction),"in anisole, 313.15 K",0.0647
same,solubility (mole fraction),"in anisole, 318.15 K",0.0746
same,solubility (mole fraction),"in anisole, 323.15 K",0.0893
same,solubility (mole fraction),"in ethanol, 283.15 K",0.00035
same,solubility (mole fraction),"in ethanol, 288.15 K",0.000369
same,solubility (mole fraction),"in ethanol, 293.15 K",0.000418
same,solubility (mole fraction),"in ethanol, 298.15 K",0.000531
same,solubility (mole fraction),"in ethanol, 303.15 K",0.000631
same,solubility (mole fraction),"in ethanol, 308.15 K",0.000807
same,solubility (mole fraction),"in ethanol, 313.15 K",0.00102
same,solubility (mole fraction),"in ethanol, 318.15 K",0.00124
same,solubility (mole fraction),"in ethanol, 323.15 K",0.0015
same,solubility (mole fraction),"in ethyl acetate, 283.15 K",0.0133
same,solubility (mole fraction),"in ethyl acetate, 288.15 K",0.015
same,solubility (mole fraction),"in ethyl acetate, 293.15 K",0.0172
same,solubility (mole fraction),"in ethyl acetate, 298.15 K",0.0206
same,solubility (mole fraction),"in ethyl acetate, 303.15 K",0.0228
same,solubility (mole fraction),"in ethyl acetate, 308.15 K",0.0266
same,solubility (mole fraction),"in ethyl acetate, 313.15 K",0.0316
same,solubility (mole fraction),"in ethyl acetate, 318.15 K",0.036
same,solubility (mole fraction),"in ethyl acetate, 323.15 K",0.0422
same,solubility (mole fraction),"in isopropanol, 283.15 K",0.000139
same,solubility (mole fraction),"in isopropanol, 288.15 K",0.000199
same,solubility (mole fraction),"in isopropanol, 293.15 K",0.000222
same,solubility (mole fraction),"in isopropanol, 298.15 K",0.000322
same,solubility (mole fraction),"in isopropanol, 303.15 K",0.000394
same,solubility (mole fraction),"in isopropanol, 308.15 K",0.000538
same,solubility (mole fraction),"in isopropanol, 313.15 K",0.000779
same,solubility (mole fraction),"in isopropanol, 318.15 K",0.000996
same,solubility (mole fraction),"in isopropanol, 323.15 K",0.00136
same,solubility (mole fraction),"in methanol, 283.15 K",0.000259
same,solubility (mole fraction),"in methanol, 288.15 K",0.000329
same,solubility (mole fraction),"in methanol, 293.15 K",0.000376
same,solubility (mole fraction),"in methanol, 298.15 K",0.000525
same,solubility (mole fraction),"in methanol, 303.15 K",0.000637
same,solubility (mole fraction),"in methanol, 308.15 K",0.000804
same,solubility (mole fraction),"in methanol, 313.15 K",0.00095
same,solubility (mole fraction),"in methanol, 318.15 K",0.00115
same,solubility (mole fraction),"in methanol, 323.15 K",0.00145
same,solubility (mole fraction),"in n-butanol, 283.15 K",0.000203
same,solubility (mole fraction),"in n-butanol, 288.15 K",0.000337
same,solubility (mole fraction),"in n-butanol, 293.15 K",0.00049
same,solubility (mole fraction),"in n-butanol, 298.15 K",0.000661
same,solubility (mole fraction),"in n-butanol, 303.15 K",0.000826
same,solubility (mole fraction),"in n-butanol, 308.15 K",0.00111
same,solubility (mole fraction),"in n-butanol, 313.15 K",0.00144
same,solubility (mole fraction),"in n-butanol, 318.15 K",0.00183
same,solubility (mole fraction),"in n-butanol, 323.15 K",0.00241
